ChEMBL document CHEMBL1201862, “PubChem BioAssay data set” (2004)
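Values below derive from 48-hour exposures of cells grown in 96-well plates, with endpoints linearly interpolated between the two concentrations bracketing the appropriate inhibition level. The concentration for 50% growth inhibition is given as GI50.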 Calls of active or inactive are those of the source. Rule as the data show it: active = GI50 up to about 1.1 µM and inactive = higher.

Legend:
Experiment in all cases: NCI anticancer screen, dose series, 48 h
[1] = tested on: MDA-N
[2] = tested on: SK-MEL-5
[3] = tested on: SK-MEL-28
[4] = tested on: DU-145
[5] = tested on: 786-0
[6] = tested on: CCRF-CEM
[7] = tested on: NCI/ADR-RES
[8] = tested on: A498
[9] = tested on: LOX IMVI
[10] = tested on: IGROV-1
[11] = tested on: MDA-MB-435
[12] = tested on: OVCAR-5
[13] = tested on: HCT-116
[14] = tested on: PC-3
[15] = tested on: Hs-578T
[16] = tested on: RPMI-8226
[17] = tested on: SF-268
[18] = tested on: K562
[19] = tested on: KM12
[20] = tested on: UACC-257

Measured: GI50

O=[N+]([O-])C(/C=C(\Cl)n1nnc2ccccc21)=C(/Cl)n1nnc2ccccc21
inactive: [1] > 100 µM | [2] > 100 µM | [3] > 100 µM | [4] > 100 µM | [5] > 100 µM | [6] 76.4 µM | [7] > 100 µM | [8] > 100 µM | [9] > 100 µM | [10] > 100 µM | [11] > 100 µM | [12] > 100 µM | [13] > 100 µM | [14] > 100 µM | [15] > 100 µM | [16] > 100 µM | [17] > 100 µM | [18] > 100 µM | [19] > 100 µM | [20] > 100 µM

O=c1oc2ccccc2cc1-c1cc2ccccn2c1
inactive: [1] > 100 µM | [2] > 100 µM | [3] > 100 µM | [4] > 100 µM | [5] > 100 µM | [6] > 100 µM | [7] > 100 µM | [8] > 100 µM | [9] > 100 µM | [10] > 100 µM | [11] > 100 µM | [12] > 100 µM | [13] > 100 µM | [14] > 100 µM | [15] > 100 µM | [16] > 100 µM | [17] > 100 µM | [18] > 100 µM | [19] > 100 µM | [20] > 100 µM

CSc1nc(C#N)c(N)n1C
inactive: [1] > 100 µM | [2] > 100 µM | [3] > 100 µM | [4] 64.1 µM | [5] > 100 µM | [6] > 100 µM | [7] > 100 µM | [8] > 100 µM | [9] > 100 µM | [10] > 100 µM | [11] > 100 µM | [12] > 100 µM | [13] > 100 µM | [14] > 100 µM | [15] > 100 µM | [16] > 100 µM | [17] > 100 µM | [18] > 100 µM | [19] > 100 µM | [20] > 100 µM

N#C/C(=C/N1C(=O)/C(=C/c2ccc([N+](=O)[O-])cc2)SC1=S)c1nc2ccccc2s1
inactive: [1] 24.4 µM | [2] 11.4 µM | [3] 30.1 µM | [4] 31.8 µM | [5] 25.4 µM | [6] 24.5 µM | [7] 32.7 µM | [8] 12.1 µM | [9] 26.4 µM | [10] 12.3 µM | [11] 29.5 µM | [12] 29.1 µM | [13] 14.3 µM | [14] 13.8 µM | [15] 29.6 µM | [16] 11.1 µM | [17] 24.7 µM | [18] 17.5 µM | [19] 28.2 µM | [20] 14.2 µM

CC(C)(C)C1CCC2(CC1)CCN(CCCN1CCOCC1)CC2
inactive: [1] 28.8 µM | [2] 8.05 µM | [3] 16.9 µM | [4] > 100 µM | [5] 20.2 µM | [6] 25.4 µM | [7] > 100 µM | [8] 34.7 µM | [9] 18.9 µM | [10] > 65 µM | [11] 28.2 µM | [12] > 60 µM | [13] 27.6 µM | [14] > 100 µM | [15] 35 µM | [16] 17.5 µM | [17] > 83 µM | [18] 8.51 µM | [19] > 56 µM | [20] 11.9 µM

O=C1CCC(=O)N1CNc1ccc2c(c1)Sc1ccccc1O2
inactive: [1] 30.2 µM | [2] 26.4 µM | [3] 87.3 µM | [4] 32.5 µM | [5] 23.6 µM | [6] 29 µM | [7] 42.9 µM | [8] 53 µM | [9] 27.3 µM | [10] 38.9 µM | [11] 31.9 µM | [12] 43.9 µM | [13] 21.3 µM | [14] 32 µM | [15] 44.7 µM | [16] 33.9 µM | [17] 44.8 µM | [18] 49.8 µM | [19] 36.7 µM | [20] 46.7 µM

CC(=O)O[C@@H]1C(=O)N(c2ccccc2)[C@@H]1c1cc2ccccc2c2ccccc12
inactive: [1] 43 µM | [2] 23.2 µM | [3] 56 µM | [4] 40.8 µM | [5] 42.2 µM | [6] 25.6 µM | [7] 33.9 µM | [8] > 100 µM | [9] 20 µM | [10] 21.6 µM | [11] 16.8 µM | [12] 50 µM | [13] 27.5 µM | [14] 32.9 µM | [15] 27.7 µM | [16] 21.3 µM | [17] 44.3 µM | [18] 36.6 µM | [19] 20.3 µM | [20] 25.5 µM

CC1(C)C2C=C(CCN3CCOCC3)CC1C2 (stereo not given)
inactive: [1] > 100 µM | [2] > 100 µM | [3] > 100 µM | [4] > 100 µM | [5] > 100 µM | [6] > 100 µM | [7] > 100 µM | [8] > 100 µM | [9] > 100 µM | [10] > 100 µM | [11] > 100 µM | [12] > 100 µM | [13] > 100 µM | [14] > 100 µM | [15] > 100 µM | [16] > 100 µM | [17] > 100 µM | [18] > 100 µM | [19] > 100 µM | [20] > 100 µM

OC(CCN1CCN(CCOC(c2ccc(F)cc2)c2ccc(F)cc2)CC1)c1ccc(Br)cc1 (stereo not given)
inactive: [1] 2.61 µM | [2] 1.69 µM | [3] 2.69 µM | [4] 6.21 µM | [5] 2.68 µM | [6] 2.77 µM | [7] 2.21 µM | [8] 2.12 µM | [9] 2.04 µM | [10] 4.57 µM | [11] 2.27 µM | [12] 15.5 µM | [13] 2.8 µM | [14] 4.83 µM | [15] 4.89 µM | [16] 2.67 µM | [17] 4.76 µM | [18] 2.45 µM | [19] 2.44 µM | [20] 1.96 µM

CCn1sc2ccccc2c1=O
inactive: [1] 4.05 µM | [2] 9.84 µM | [3] 18.1 µM | [4] 20.4 µM | [5] 2.34 µM | [6] 1.87 µM | [7] 18.2 µM | [8] 37.8 µM | [9] 2.61 µM | [10] 6.73 µM | [11] 1.99 µM | [12] 9.1 µM | [13] 14.8 µM | [14] 14.3 µM | [15] 16.4 µM | [16] 4.23 µM | [17] 17.3 µM | [18] 4.58 µM | [19] 6.89 µM | [20] 14.8 µM
